Experimental data taken from patent publication EP2433624B1, “Use of buparvaquone for controlling mites parasitising honeybees” (Bimeda International Pharmaceuticals Limited, priority 2010, dated 2012).
Where “and” joins values, the source holds several entries; their conditions need not be identical. Equal entries are not always repeated.

Tests used:
[1] = system: adult honeybees (Apis mellifera); assay: Toxicity of BPQ A to honeybees when fed in a sugar syrup solution (hoarding cages, 16 days); format: in vivo; conditions: summary statement over all the studies
Method: We have assessed the toxicity of BPQ to adult honeybees (Apis mellifera) using the 50 mg/mL liquid solution, BPQ A, under laboratory conditions
Example 1 - Toxicity of BPQ A to honeybees when fed in a sugar syrup solution (50mL liquid at a concentration of 50mg BPQ/mL)
Hoarding cages consisted of plastic tumblers (600mL) with an opening diameter of 84mm. The tumblers were paired with standard plastic petri-dishes and glass scintillation vials. To allow sufficient ventilation, 33 holes, approximately 3mm in diameter were made in the sides of each tumbler, in addition to two 30mm x 30mm holes fitted with nylon mesh. A circular hole was cut out of the bottom of the cup, which produced an opening large enough to allow a lidded scintillation vial to pass through the hole. Two holes were drilled into the lids of the scintillation vials with a 1mm bit and these vials were filled a 1:1 sugar solution, together with different concentrations of the solvent and product. […]
Three replicates were analysed at each concentration of BPQ A and solvent as outlined below, together with a control group which were only fed sugar and water throughout the experimental period.
Bees were maintained for 16 days at 32°C. Bees were fed additional food as required throughout the experimental period and the general behaviour and survival of the test bees were recorded on a daily basis. […]

[2] = system: Varroa mites; assay: Efficacy of BPQ B against Varroa mites on honeybees sprayed with an aqueous solution; format: in vivo; conditions: summary statement
Method: (§1) Example 7 - Toxicity of BPQ B to Varroa mites on honeybees when sprayed with an aqueous solution of the active ingredient
To estimate the percentage efficacy of BPQ B at different concentrations when sprayed as an aqueous solution onto adult bees
(§2) A total of 20 newly emerged Varroa infested bees were placed in hoarding cages. The cages were prepared as described in Section 1.0, except that the air vents were reduced in size using parafilm to prevent the Varroa mites escaping during the test period. The mean(±se) number of mites per 20 bees was estimated prior to commencement and an additional 10 mites per cage were added. Mites were collected and introduced as described above. The treatment solution was made by dissolving BPQ B in solvent, followed by two aqueous serial dilutions producing a concentration of 500µg/mL and 5µg/mL. From the latter, further serial dilutions were carried in water producing the following concentrations: • 0.5µg/mL. (C1-C3) • 0.05µg/mL. (D1-D3) • 0.005µg/mL. (E1-E3) • 0.0005µg/mL. (F1-F3) • 0.00005µg/mL (G1-G3)
(§3) Three replicates were established at each concentration plus a control group which were sprayed with water only. All test groups were fed 10mL of 1:1 sucrose:water solution and placed in the incubator at 32°C and monitored on a daily basis for the number of mites and number of bees knocked down. At the end of five day treatment period, the percentage efficacy of the treatment was estimated by treating bees in all cages with Apistan. % efficacy = mites knocked from treatment/total mites (treatment+Apistan)*100 [formula]

[3] = system: honeybees; assay: Survival of bees sprayed with aqueous solutions of BPQ; format: in vivo, Apis mellifera; conditions: 20 bees per cage
Method: as §1, §2, §3

[4] = Solubility in water; format: physicochemical
[5] = system: Varroa mites; assay: Efficacy of BPQ B against Varroa mites on honeybees fed treated sucrose solution; format: in vivo; conditions: summary statement
Method: Example 6 - Toxicity of BPQ B to Varroa mites on honeybees when fed treated sucrose solution
To estimate the percentage efficacy of BPQ at different concentrations in sucrose solution
A total of 20 newly emerged Varroa infested bees were placed in hoarding cages. The cages were prepared as described in Section 1.0, except that the air vents were reduced in size using parafilm to prevent the Varroa mites escaping during the test period. The mean(±se) number of mites per 20 bees was estimated prior to commencement of the experiment and an additional 5 mites per cage were added. (mean±se = 10.6±0.33). This was carried out by collecting adult female mite from drone pupae, placing them in an eppendorf tube and then releasing them into the cages.
The treatment solution was made by dissolving BPQ B in solvent, followed by two aqueous serial dilutions producing a concentration of 500µg/mL and 5 µg/mL. From the latter, further serial dilutions were carried with sucrose solution producing the following concentrations: • 0.5µg/mL. (C1-C3) • 0.05µg/mL. (D1-D3) • 0.005µg/mL. (E1-E3) • 0.0005µg/mL. (F1-F3) • 0.00005µg/mL (G1-G3)
as §3, with “only fed sugar syrup.” for “sprayed with water only.”, “cages” for “test groups”, “were” for “were fed 10mL of 1:1 sucrose:water solution and”, “Apistan (Trade Mark of Vita (Europe) Ltd. Apistan contains fluvalinate which is a synthetic pyrethroid.” for “Apistan.”

[6] = system: honeybee larvae; assay: Toxicity of BPQ B to honeybee larvae when fed treated syrup; format: in vivo, Apis mellifera; conditions: colony fed treated syrup
Text: To measure the effect of treatment on developing larvae when fed syrup treated with BPQ powder, BPQ B, dissolved in the solvent (N-methyl pyrollidone) and diluted in an aqueous solution.
Apidae boxes were used to raise young queens and when virgin queens started to lay an area 6cm x 3cm were marked and missing cells were noted. The miniature colony was fed treated syrup, which was made by dissolving BPQ B powder in solvent, followed by serial dilutions using a sucrose solution (2 parts sugar: 1 part water). The concentrations administered are given below. Two replicates were carried out for the product, while 1 colony (apidae) was used for each of the solvent concentrations.

[7] = 0.00005µg/mL (g1-g3) aqueous solution sprayed
[8] = 0.0005µg/mL (f1-f3) aqueous solution sprayed
[9] = 0.005µg/mL (e1-e3) aqueous solution sprayed
[10] = 0.05µg/mL (d1-d3) aqueous solution sprayed
[11] = 0.5µg/mL (c1-c3) aqueous solution sprayed

## CC(C)(C)[C@H]1CC[C@H](CC2=C(O)C(=O)c3ccccc3C2=O)CC1 [BPQ, buparvaquone]
[1]
  harm to adult bees and larvae: harmless
[2]
  effective, topical application: ~40%
[3]; [7]
  Bees remaining: 18 and 17 and 20
  Survival rate on bees, Day 1: 20
  Survival rate on bees, Day 2: 19 and 20
  Survival rate on bees, Day 3: 19 and 17 and 20
  Survival rate on bees, Day 4: 19 and 17 and 20
  Survival rate on bees, Day 5: 19 and 17 and 20
  Survival rate on bees, Day 6: 18 and 17 and 20
[3]; [8]
  Bees remaining: 20 and 19 and 18
  Survival rate on bees, Day 1: 20
  Survival rate on bees, Day 2: 20 and 19 and 18
  Survival rate on bees, Day 3: 20 and 19 and 18
  Survival rate on bees, Day 4: 20 and 19 and 18
  Survival rate on bees, Day 5: 20 and 19 and 18
  Survival rate on bees, Day 6: 20 and 19 and 18
[3]; [9]
  Bees remaining: 19 and 20
  Survival rate on bees, Day 1: 20
  Survival rate on bees, Day 2: 20
  Survival rate on bees, Day 3: 19 and 20
  Survival rate on bees, Day 4: 19 and 20
  Survival rate on bees, Day 5: 19 and 20
  Survival rate on bees, Day 6: 19 and 20
[3]; [10]
  Bees remaining: 20 and 19
  Survival rate on bees, Day 1: 20
  Survival rate on bees, Day 2: 20 and 19
  Survival rate on bees, Day 3: 20 and 19
  Survival rate on bees, Day 4: 20 and 19
  Survival rate on bees, Day 5: 20 and 19
  Survival rate on bees, Day 6: 20 and 19
[3]; [11]
  Bees remaining: 19 and 20
  Survival rate on bees, Day 1: 20
  Survival rate on bees, Day 2: 20 and 19
  Survival rate on bees, Day 3: 20 and 19
  Survival rate on bees, Day 4: 19 and 20
  Survival rate on bees, Day 5: 19 and 20
  Survival rate on bees, Day 6: 19 and 20
[4]
  solubility in water: completely insoluble
[5]
  effective, application via bee feed route: 82%
[6]
  development of developing larvae: no negative effects
